Results: patent US10597388B2, “Pyridazinone herbicides” (FMC CORPORATION, priority 2014, dated 2020)

Assays:
Experiment in all cases: Test D controlled growth environment herbicide test, pre- and postemergence
Type in all cases: in vivo
[1] = tested on: ryegrass, Italian (Italian ryegrass, Lolium multiflorum)
Procedure, shortened: (§1)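 Pre-emergence: seeds sown in silt loam soil were sprayed with compound in a non-phytotoxic solvent mix containing surfactant. Post-emergence: plants at 2 to 18 cm (1- to 4-leaf stage) in peat moss/vermiculite medium got the same formulation. Visual 0–100 rating versus controls after 14 to 21 d.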

[2] = tested on: wheat, winter (winter wheat, Triticum aestivum)
Procedure, shortened: as §1

[3] = tested on: barley, winter (winter barley, Hordeum vulgare)
Procedure, shortened: as §1

[4] = tested on: pigweed (Amaranthus retroflexus)
Procedure, shortened: as §1

[5] = tested on: lambsquarters (Chenopodium album)
Procedure, shortened: as §1

[6] = tested on: windgrass (Apera spica-venti)
Procedure, shortened: as §1

[7] = tested on: galium (catchweed bedstraw, Galium aparine)
Procedure, shortened: as §1

[8] = tested on: foxtail, green (green foxtail, Setaria viridis)
Procedure, shortened: as §1

[9] = tested on: deadnettle (henbit deadnettle, Lamium amplexicaule)
Procedure, shortened: as §1

kochia (Kochia scoparia) = tested on: kochia (Kochia scoparia)
Procedure, shortened: as §1

[10] = tested on: speedwell (bird's-eye speedwell, Veronica persica)
Procedure, shortened: as §1

[11] = tested on: chickweed (common chickweed, Stellaria media)
Procedure, shortened: as §1

[12] = tested on: blackgrass (Alopecurus myosuroides)
Procedure, shortened: as §1

[13] = Postemergence, 31 g ai/ha, scale 0 to 100 (0 no effect, 100 complete control)
[14] = Postemergence, 125 g ai/ha, visual rating on scale 0 (no effect) to 100 (complete control), 14 to 21 d
[15] = Postemergence, 250 g ai/ha, scale 0 to 100 (0 no effect, 100 complete control)
[16] = Preemergence, 125 g ai/ha, scale 0 to 100 (0 no effect, 100 complete control)
[17] = Preemergence, 250 g ai/ha, scale 0 to 100 (0 no effect, 100 complete control)
[18] = postemergence, 62 g ai/ha, scale 0 to 100, 0 no effect, 100 complete control
[19] = Preemergence, 62 g ai/ha, scale 0 to 100 (0 no effect, 100 complete control)

With `CC(=O)Oc1c(C)nn(C)c(=O)c1-c1ccc(F)c2ccccc12` [Compound 90] the “Ryegrass, Italian plant response rating” value [1, 13] was 75, the “Plant response rating, Ryegrass, Italian” value [1, 14] was 95 and the “Plant response rating, Ryegrass, Italian” value [1, 15] was 100. The “Plant response rating (scale of 0 to 100), Ryegrass, Italian” value ([1]; Preemergence, 31 g ai/ha) was 100, the “Plant response rating (scale of 0 to 100), Ryegrass, Italian” value ([1]; Preemergence, 62 g ai/ha) was 100 and the “Plant response rating, Ryegrass, Italian” value [1, 16] was 100. For the same compound, the “Plant response rating, Ryegrass, Italian” value [1, 17] was 100, the “Plant response rating, Ryegrass, Italian” value [1, 18] was 90 and the “Wheat, Winter plant response rating” value [2, 13] was 20. The “Plant response rating, Wheat, Winter” value [2, 14] was 40, the “Plant response rating, Wheat, Winter” value [2, 15] was 40 and the “Plant response rating (scale of 0 to 100), Wheat, Winter” value ([2]; Preemergence, 31 g ai/ha) was 0. The “Plant response rating (scale of 0 to 100), Wheat, Winter” value ([2]; Preemergence, 62 g ai/ha) was 10, the “Plant response rating, Wheat, Winter” value [2, 16] was 25 and the “Plant response rating, Wheat, Winter” value [2, 17] was 50. The “Plant response rating, Wheat, Winter” value [2, 18] was 35, the “Barley, Winter plant response rating” value [3, 13] was 0 and the “Plant response rating, Barley, Winter” value [3, 14] was 25. The “Plant response rating, Barley, Winter” value [3, 15] was 35, the “Plant response rating (scale of 0 to 100), Barley, Winter” value ([3]; Preemergence, 31 g ai/ha) was 0 and the “Plant response rating, Barley, Winter” value [3, 19] was 0. For the same compound, the “Plant response rating, Barley, Winter” value [3, 16] was 15, the “Plant response rating, Barley, Winter” value [3, 17] was 30 and the “Plant response rating, Barley, Winter” value [3, 18] was 15. The “Pigweed plant response rating” value [4, 13] was 80, the “Plant response rating, Pigweed” value [4, 14] was 95 and the “Plant response rating, Pigweed” value [4, 15] was 100. For the same compound, the “Plant response rating (scale of 0 to 100), Pigweed” value ([4]; Preemergence, 31 g ai/ha) was 25, the “Plant response rating (scale of 0 to 100), Pigweed” value ([4]; Preemergence, 62 g ai/ha) was 35 and the “Plant response rating, Pigweed” value [4, 16] was 100. For the same compound, the “Plant response rating, Pigweed” value [4, 17] was 100, the “Plant response rating, Pigweed” value [4, 18] was 90 and the “Lambsquarters plant response rating” value [5, 13] was 90. For the same compound, the “Plant response rating, Lambsquarters” value [5, 14] was 100, the “Plant response rating, Lambsquarters” value [5, 15] was 100 and the “Plant response rating (scale of 0 to 100), Lambsquarters” value ([5]; Preemergence, 31 g ai/ha) was 90. For the same compound, the “Plant response rating (scale of 0 to 100), Lambsquarters” value ([5]; Preemergence, 62 g ai/ha) was 98, the “Plant response rating, Lambsquarters” value [5, 16] was 85 and the “Plant response rating, Lambsquarters” value [5, 17] was 100. The “Plant response rating, Lambsquarters” value [5, 18] was 90, the “Windgrass plant response rating” value [6, 13] was 30 and the “Plant response rating, Windgrass” value [6, 14] was 70. For the same compound, the “Plant response rating, Windgrass” value [6, 15] was 90, the “Plant response rating (scale of 0 to 100), Windgrass” value ([6]; Preemergence, 31 g ai/ha) was 50 and the “Plant response rating (scale of 0 to 100), Windgrass” value ([6]; Preemergence, 62 g ai/ha) was 65. For the same compound, the “Plant response rating, Windgrass” value [6, 16] was 80, the “Plant response rating, Windgrass” value [6, 17] was 98 and the “Plant response rating, Windgrass” value [6, 18] was 50. For the same compound, the “Galium plant response rating” value [7, 13] was 98, the “Plant response rating, Galium” value [7, 14] was 100 and the “Plant response rating, Galium” value [7, 15] was 100. For the same compound, the “Plant response rating (scale of 0 to 100), Galium” value ([7]; Preemergence, 31 g ai/ha) was 75, the “Plant response rating (scale of 0 to 100), Galium” value ([7]; Preemergence, 62 g ai/ha) was 75 and the “Plant response rating, Galium” value [7, 16] was 85. The “Plant response rating, Galium” value [7, 17] was 95, the “Plant response rating, Galium” value [7, 18] was 100 and the “Foxtail, Green plant response rating” value [8, 13] was 25. For the same compound, the “Plant response rating, Foxtail, Green” value [8, 14] was 70, the “Plant response rating, Foxtail, Green” value [8, 15] was 75 and the “Plant response rating (scale of 0 to 100), Foxtail, Green” value ([8]; Preemergence, 31 g ai/ha) was 25. The “Plant response rating (scale of 0 to 100), Foxtail, Green” value ([8]; Preemergence, 62 g ai/ha) was 45, the “Plant response rating, Foxtail, Green” value [8, 16] was 70 and the “Plant response rating, Foxtail, Green” value [8, 17] was 95. For the same compound, the “Plant response rating, Foxtail, Green” value [8, 18] was 55, the “Deadnettle plant response rating” value [9, 13] was 70 and the “Plant response rating, Deadnettle” value [9, 14] was 100. For the same compound, the “Plant response rating, Deadnettle” value [9, 15] was 100, the “Plant response rating (scale of 0 to 100), Deadnettle” value ([9]; Preemergence, 31 g ai/ha) was 15 and the “Plant response rating (scale of 0 to 100), Deadnettle” value ([9]; Preemergence, 62 g ai/ha) was 70. The “Plant response rating, Deadnettle” value [9, 16] was 90, the “Plant response rating, Deadnettle” value [9, 17] was 98 and the “Plant response rating, Deadnettle” value [9, 18] was 80. The “Kochia plant response rating” value (kochia (Kochia scoparia); [13]) was 85, the “Plant response rating, Kochia” value (kochia (Kochia scoparia); [14]) was 100 and the “Plant response rating, Kochia” value (kochia (Kochia scoparia); [15]) was 100. For the same compound, the “Plant response rating (scale of 0 to 100), Kochia” value (kochia (Kochia scoparia); Preemergence, 31 g ai/ha) was 75, the “Plant response rating (scale of 0 to 100), Kochia” value (kochia (Kochia scoparia); Preemergence, 62 g ai/ha) was 65 and the “Plant response rating, Kochia” value (kochia (Kochia scoparia); [16]) was 90. The “Plant response rating, Kochia” value (kochia (Kochia scoparia); [17]) was 80, the “Plant response rating, Kochia” value (kochia (Kochia scoparia); [18]) was 100 and the “Speedwell plant response rating” value [10, 13] was 100. For the same compound, the “Plant response rating, Speedwell” value [10, 14] was 100, the “Plant response rating, Speedwell” value [10, 15] was 100 and the “Plant response rating (scale of 0 to 100), Speedwell” value ([10]; Preemergence, 31 g ai/ha) was 100. The “Plant response rating (scale of 0 to 100), Speedwell” value ([10]; Preemergence, 62 g ai/ha) was 100, the “Plant response rating, Speedwell” value [10, 16] was 100 and the “Plant response rating, Speedwell” value [10, 17] was 100. For the same compound, the “Plant response rating, Speedwell” value [10, 18] was 100, the “Chickweed plant response rating” value [11, 13] was 80 and the “Plant response rating, Chickweed” value [11, 14] was 98. The “Plant response rating, Chickweed” value [11, 15] was 100, the “Plant response rating (scale of 0 to 100), Chickweed” value ([11]; Preemergence, 31 g ai/ha) was 100 and the “Plant response rating, Chickweed” value [11, 16] was 100. The “Plant response rating, Chickweed” value [11, 17] was 100, the “Plant response rating, Chickweed” value [11, 18] was 90 and the “Blackgrass plant response rating” value [12, 13] was 15. For the same compound, the “Plant response rating, Blackgrass” value [12, 14] was 55, the “Plant response rating, Blackgrass” value [12, 15] was 65 and the “Plant response rating (scale of 0 to 100), Blackgrass” value ([12]; Preemergence, 31 g ai/ha) was 25. The “Plant response rating, Blackgrass” value [12, 19] was 35, the “Plant response rating, Blackgrass” value [12, 16] was 45 and the “Plant response rating, Blackgrass” value [12, 17] was 60. For the same compound, the “Plant response rating, Blackgrass” value [12, 18] was 35.
